These results are taken from ChEMBL document CHEMBL4316627, “Modulation of the NOD-like receptors NOD1 and NOD2: A chemist's perspective” (Bioorg Med Chem Lett, 2019).

Molecules are shown by their SMILES.

Usually Kd stands for the free concentration of one partner at which half of the binding sites on the other are occupied at equilibrium, for simple one-to-one binding.

A short description of experiment [1]: Binding affinity to Jack bean Concanavalin A by SPR assay. Set-up: species or system Canavalia ensiformis.
Experiment [2] concerns the target Nucleotide-binding oligomerization domain-containing protein 2 (Homo sapiens, UniProt Q9HC29). Nature of the experiment: Binding affinity to human NOD2 LRR domain expressed in Escherichia coli by SPR assay. A general note: SPR reads the build-up and loss of mass on a sensor chip optically.
Experiment [3] has as its target T1, Nucleotide-binding oligomerization domain-containing protein 1 (Homo sapiens, UniProt Q9Y239).
T1 sequence (Q9Y239 whole entry): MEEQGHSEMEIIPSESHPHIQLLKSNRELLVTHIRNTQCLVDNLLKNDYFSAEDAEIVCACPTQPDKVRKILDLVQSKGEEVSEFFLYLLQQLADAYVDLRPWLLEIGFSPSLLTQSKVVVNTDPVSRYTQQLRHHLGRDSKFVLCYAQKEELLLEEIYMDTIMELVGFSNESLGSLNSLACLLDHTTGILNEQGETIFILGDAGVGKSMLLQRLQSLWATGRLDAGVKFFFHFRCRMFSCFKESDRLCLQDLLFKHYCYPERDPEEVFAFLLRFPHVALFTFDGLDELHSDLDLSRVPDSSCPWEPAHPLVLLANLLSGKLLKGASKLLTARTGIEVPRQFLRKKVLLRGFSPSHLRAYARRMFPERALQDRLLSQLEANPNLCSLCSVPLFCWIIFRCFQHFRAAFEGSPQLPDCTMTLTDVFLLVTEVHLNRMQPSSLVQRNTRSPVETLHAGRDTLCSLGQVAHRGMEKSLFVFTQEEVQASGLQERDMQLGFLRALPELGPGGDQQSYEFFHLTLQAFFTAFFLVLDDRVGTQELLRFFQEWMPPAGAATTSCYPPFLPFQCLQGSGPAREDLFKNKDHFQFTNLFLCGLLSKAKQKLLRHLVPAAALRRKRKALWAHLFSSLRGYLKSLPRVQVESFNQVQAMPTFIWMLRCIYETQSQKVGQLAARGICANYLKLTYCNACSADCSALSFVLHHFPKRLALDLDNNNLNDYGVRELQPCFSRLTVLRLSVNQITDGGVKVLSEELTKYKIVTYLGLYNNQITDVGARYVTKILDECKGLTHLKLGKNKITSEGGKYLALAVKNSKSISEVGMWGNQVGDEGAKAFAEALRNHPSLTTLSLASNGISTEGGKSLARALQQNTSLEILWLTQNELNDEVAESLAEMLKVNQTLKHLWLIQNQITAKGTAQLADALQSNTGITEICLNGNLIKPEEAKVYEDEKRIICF
In words: Binding affinity to NOD1 LRR domain (unknown origin).

Experiment [4] addresses T2, Jacalin (Artocarpus heterophyllus, UniProt Q38720).
T2 sequence (Q38720 whole entry): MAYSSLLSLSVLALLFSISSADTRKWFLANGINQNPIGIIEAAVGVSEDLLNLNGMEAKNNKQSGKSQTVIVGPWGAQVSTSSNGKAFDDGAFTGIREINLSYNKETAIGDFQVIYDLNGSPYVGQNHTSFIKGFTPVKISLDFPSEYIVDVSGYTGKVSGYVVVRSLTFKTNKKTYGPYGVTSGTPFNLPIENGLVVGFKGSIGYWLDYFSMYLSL
Nature of the experiment: Binding affinity to jackfruit jacalin by SPR assay.

Chain of Nucleotide-binding oligomerization domain-containing protein 2 (Q9HC29 whole entry, the tested form may be a part): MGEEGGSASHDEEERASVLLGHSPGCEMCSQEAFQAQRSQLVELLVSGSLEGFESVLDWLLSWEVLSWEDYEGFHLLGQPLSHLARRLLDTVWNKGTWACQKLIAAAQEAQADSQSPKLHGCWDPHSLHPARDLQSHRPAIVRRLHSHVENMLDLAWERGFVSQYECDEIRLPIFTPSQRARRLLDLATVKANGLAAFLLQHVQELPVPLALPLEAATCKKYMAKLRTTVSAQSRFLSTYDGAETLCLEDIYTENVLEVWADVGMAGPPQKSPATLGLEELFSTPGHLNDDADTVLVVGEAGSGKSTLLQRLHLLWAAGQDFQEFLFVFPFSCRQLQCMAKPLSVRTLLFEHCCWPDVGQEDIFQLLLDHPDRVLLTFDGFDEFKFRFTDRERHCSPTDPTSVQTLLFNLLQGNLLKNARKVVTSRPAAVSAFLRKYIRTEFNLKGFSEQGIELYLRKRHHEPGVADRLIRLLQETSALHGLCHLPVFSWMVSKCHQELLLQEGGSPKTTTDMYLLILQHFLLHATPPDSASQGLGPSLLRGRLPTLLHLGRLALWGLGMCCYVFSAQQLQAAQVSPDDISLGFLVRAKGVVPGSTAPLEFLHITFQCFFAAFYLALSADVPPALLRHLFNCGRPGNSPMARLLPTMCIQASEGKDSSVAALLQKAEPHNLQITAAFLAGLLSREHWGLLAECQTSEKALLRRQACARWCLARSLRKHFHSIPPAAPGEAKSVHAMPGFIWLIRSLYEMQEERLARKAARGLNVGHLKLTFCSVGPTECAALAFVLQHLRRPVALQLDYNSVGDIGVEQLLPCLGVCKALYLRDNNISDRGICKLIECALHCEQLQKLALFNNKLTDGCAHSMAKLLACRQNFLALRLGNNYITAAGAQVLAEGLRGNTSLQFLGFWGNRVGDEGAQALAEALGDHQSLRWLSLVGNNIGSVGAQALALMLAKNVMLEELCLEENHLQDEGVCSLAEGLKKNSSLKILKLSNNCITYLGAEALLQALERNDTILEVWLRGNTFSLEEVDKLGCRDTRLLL

Take `OC[C@H]1OC(O)[C@@H](O)[C@@H](O)[C@@H]1O` (stereo partly drawn) [D-MANNOSE]: the Kd in experiment [1] amounted to 200 µM.
In experiment [2], `CC(=O)N[C@H]1C(O)O[C@H](CO)[C@@H](O)[C@@H]1O[C@H](C)C(=O)N[C@@H](C)C(=O)N[C@H](CCC(=O)O)C(N)=O` (some centres undefined) [MURAMYL DIPEPTIDE] returned a Kd of 0.2 µM.
In experiment [3], `C[C@H](N)C(=O)N[C@H](CCC(=O)N[C@@H](CCC[C@@H](N)C(=O)O)C(=O)O)C(N)=O` came in with a dissociation constant (Kd) of 35 µM.
For `O=C[C@H](O)[C@@H](O)[C@@H](O)[C@H](O)CO` [GALACTOSE], in experiment [4], the Kd was 16 µM.
